In general, pIC50 refers to −log10 of the IC50, conventionally taken in molar units. For orientation: pEC50 means −log10 of the EC50, conventionally taken in molar units.

pEC50, pIC50: −log10 of the molar value. Where two headings read alike, the source gives them in different places.

Experimental findings from US20260078103A1, “ISOQUINOLONES AS PI3K INHIBITORS” (OnKure, Inc., priority 2022, published 2026) are described below.

Common to all, as to type: cell-based
Assay [1] concerns phosphorylation of AKT (pAKT) in SKBR3 cells express WT PI3Ka. The experiment in a line: In vitro cell pAKT (Ser473) HTRF, SKBR3 cells. As to conditions: cellular pAKT. The method, boiled down: (§1)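 Cells seeded on plates pre-stamped with 10-point compound dilutions, then grown 6 h at 37 °C (T47D in RPMI/10% FBS/insulin; SKBR3 in McCoy's 5a/10% FBS). Lysates read for pAKT Ser473 by HTRF after overnight antibody incubation. Inhibition normalised to 0.1% DMSO and 10 uM alpelisib; IC50 by four-parameter fit.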
In general terms: TR-FRET usually uses a lanthanide donor and a delayed reading to cut background.

Assay [2] deals with T47D cells expressing mutant PI3Ka (H1047R). The experiment in a line: In vitro cell proliferation, T47D cells (CellTiter-Glo). As to conditions: inhibition of proliferation, read-out: Avg T-47D EC50. The procedure, abridged:
(§2)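 T47D cells in RPMI/10% FBS/insulin (0.2 units/mL) or SKBR3 in McCoys 5a/10% FBS, 1,500 cells/well, grown 72 h at 37 °C with 10-point compound dilutions. CellTiter-Glo luminescence; % inhibition normalised to 0.1% DMSO and 10 uM Alpelisib, EC50 from four-parameter curve fit.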
On the technique in general: In ATP-based viability assays light output follows the ATP content of the culture.

The subject of assay [3] is SKBR3 cells express WT PI3Ka. The experiment in a line: In vitro cell proliferation, SKBR3 cells (CellTiter-Glo). As to conditions: inhibition of proliferation. The method, boiled down: as §2
Assay [4] concerns phosphorylation of AKT (pAKT) in T47D cells expressing mutant PI3Ka (H1047R). The experiment in a line: In vitro cell pAKT (Ser473) HTRF, T47D cells. As to conditions: cellular pAKT, T47D cells, mutant PI3Ka (H1047R), 6 hours, read-out: Avg T-47D IC50. The procedure, abridged: as §1

Regarding `Cc1cc(C(C)Nc2ccccc2C(=O)O)c2cc(N3CCC4(CCN(CC(F)(F)F)CC4)CC3)n(C)c(=O)c2c1` (single isomer, unassigned) [Example 111], the pIC50 in assay [1] (6 hours) is 4.82 to 5.70; in assay [4], 6.30 to 9.00. The pEC50 is 6.30 to 9.00 in assay [2] (72 hours) and 4.82 to 5.70 in assay [3] (72 hours).

`COCCC(=O)N1CCN(c2cc3c(C(C)Nc4ccccc4C(=O)O)cc(C)cc3c(=O)n2C)CC1` (single isomer, unassigned) [Example 112]: the pIC50 was less than 4.82 in assay [1] (Homo sapiens, SK-BR-3, 6 h) and less than 4.82 in assay [4]. The pEC50 was 4.82 to 5.70 in assay [2] (72 hours) and less than 4.82 in assay [3] (72 hours).

In the case of `COCCC(=O)N1CCN(c2cc3c(C(C)Nc4ccccc4C(=O)O)cc(C)cc3c(=O)n2C)CC1` (single isomer, unassigned) [Example 113], the pIC50 in assay [1] (6 hours) was less than 4.82; in assay [4], 5.70 to 6.30. The pEC50 in assay [2] (72 hours) is 6.30 to 9.00; in assay [3] (72 hours) it was 4.82 to 5.70.

Regarding `Cc1cc(C(C)Nc2ccccc2C(=O)O)c2cc(N3C[C@@H]4CCCC[C@H]4C3)n(C)c(=O)c2c1` (single isomer, unassigned) [Example 114], the pIC50 in assay [1] (6 hours) and in assay [4] was less than 4.82 throughout. The pEC50 in assay [2] (72 hours) and in assay [3] (72 hours) was less than 4.82 each time.

For `Cc1cc(C(C)Nc2ccccc2C(=O)O)c2cc(N3C[C@H]4CCCC[C@@H]4C3)n(C)c(=O)c2c1` (single isomer, unassigned) [Example 115], the pIC50 in assay [1] (6 hours) and in assay [4] was less than 4.82 in each case. Moreover, the results for the negative logarithm of the EC50 (pEC50) in assay [2] (72 hours) and in assay [3] (72 hours) were 6.30 to 9.00 and less than 4.82, respectively.

With `Cc1cc(C(C)Nc2ccccc2C(=O)O)c2cc(N3CCN4CC(F)(F)CC4C3)n(C)c(=O)c2c1` (single isomer, unassigned) [Example 121], the pIC50 is less than 4.82 in assay [1] (6 hours) and 6.30 to 9.00 in assay [4]. The values for the pEC50 in assay [2] (72 hours) and in assay [3] (72 hours) were 5.70 to 6.30 and less than 4.82, respectively.

Take `Cc1cc(C(C)Nc2ccccc2C(=O)O)c2cc(N3CCN4CC(F)(F)CC4C3)n(C)c(=O)c2c1` (single isomer, unassigned) [Example 122]: the pIC50 in assay [1] (6 hours) and in assay [4] was less than 4.82 in each case. Besides, the pEC50 is 4.82 to 5.70 in assay [2] (72 hours) and less than 4.82 in assay [3] (72 hours).

On to `Cc1cc(C(C)Nc2ccccc2C(=O)O)c2cc(N3CCN4C(=O)CCC4C3)n(C)c(=O)c2c1` (single isomer, unassigned) [Example 123], for which the pIC50 in assay [1] (6 hours) and in assay [4] was less than 4.82 each time. In addition, the pEC50 in assay [2] (72 hours) and in assay [3] (72 hours) was less than 4.82 in each case.

On to `Cc1cc(C(C)Nc2ccccc2C(=O)O)c2cc(N3CCN4C(=O)CCC4C3)n(C)c(=O)c2c1` (single isomer, unassigned) [Example 124], for which the negative logarithm of the IC50 (pIC50) in assay [1] (6 hours) is less than 4.82; in assay [4] it was 4.82 to 5.70. In addition, the pEC50 in assay [2] (72 hours) is 5.70 to 6.30; in assay [3] (72 hours), less than 4.82.

Consider `COc1cccc(C#Cc2cc3c(C(C)Nc4ccccc4C(=O)O)cc(C)cc3c(=O)n2C)c1` (single isomer, unassigned) [Example 125], for which the pIC50 in assay [1] (6 hours) and in assay [4] was less than 4.82 in each case. In addition, the pEC50 in assay [2] (72 hours) is 4.82 to 5.70; in assay [3] (72 hours), less than 4.82.

`COc1cccc(C#Cc2cc3c(C(C)Nc4ccccc4C(=O)O)cc(C)cc3c(=O)n2C)c1` (single isomer, unassigned) [Example 126]: the negative logarithm of the IC50 (pIC50) was less than 4.82 in assay [1] (6 hours) and 6.30 to 9.00 in assay [4]. Also, the pEC50 was 6.30 to 9.00 in assay [2] (72 hours) and less than 4.82 in assay [3] (72 hours).

With `Cc1cc(C(C)Nc2ccc(Cl)nc2C(=O)O)c2cc(N3Cc4ccc(F)cc4C3)n(C)c(=O)c2c1` (single isomer, unassigned) [Example 127], the pIC50 in assay [1] (6 hours) and in assay [4] was less than 4.82 in each case. The figures for the pEC50 in assay [2] (72 hours) and in assay [3] (72 hours) were 4.82 to 5.70 and less than 4.82, respectively.

`Cc1cc(C(C)Nc2ccc(Cl)nc2C(=O)O)c2cc(N3Cc4ccc(F)cc4C3)n(C)c(=O)c2c1` (single isomer, unassigned) [Example 128]: the pIC50 in assay [1] (6 hours) was 4.82 to 5.70; in assay [4], 6.30 to 9.00. The pEC50 was 6.30 to 9.00 in assay [2] (72 hours) and 4.82 to 5.70 in assay [3] (72 hours).

As for `Cc1cc(C(C)Nc2ccccc2C(=O)O)c2cc(N3CCN(C(=O)OC(C)C)CC3)n(C)c(=O)c2c1` (single isomer, unassigned) [Example 131], the pIC50 in assay [1] (6 hours) and in assay [4] was less than 4.82 in each case. In addition, the pEC50 in assay [2] (72 hours) is 4.82 to 5.70; in assay [3] (72 hours), less than 4.82.

As for `CCOc1ccc(-c2cc3c(C(C)Nc4ccccc4C(=O)O)cc(C)cc3c(=O)n2C)cn1` (single isomer, unassigned) [Example 132], the pIC50 was less than 4.82 in assay [1] (Homo sapiens, SK-BR-3, 6 h) and 6.30 to 9.00 in assay [4]. In addition, the pEC50 in assay [2] (72 hours) is 6.30 to 9.00; in assay [3] (Homo sapiens, SK-BR-3, 72 h), less than 4.82.

For `CCOc1ccc(-c2cc3c(C(C)Nc4ccccc4C(=O)O)cc(C)cc3c(=O)n2C)cn1` (single isomer, unassigned) [Example 133], the pIC50 in assay [1] (6 hours) and in assay [4] was less than 4.82 in each case. Moreover, the values for the pEC50 in assay [2] (72 hours) and in assay [3] (72 hours) were 4.82 to 5.70 and less than 4.82, respectively.

Regarding `Cc1cc(C(C)Nc2ccccc2C(=O)O)c2cc(N3CCN4C(=O)CCC4C3)n(C)c(=O)c2c1` (single isomer, unassigned) [Example 134], the pIC50 in assay [1] (Homo sapiens, SK-BR-3, 6 h) is less than 4.82; in assay [4] (Homo sapiens, T47D, 6 h), less than 4.82. Further, the pEC50 in assay [2] (Homo sapiens, T47D, 72 h) was 4.82 to 5.70; in assay [3] (Homo sapiens, SK-BR-3, 72 h), less than 4.82.

For the compound `CC(=O)N1CCC2(CC1)CCN(c1cc3c(C(C)Nc4ccccc4C(=O)O)cc(C)cc3c(=O)n1C)CC2` (single isomer, unassigned) [Example 135], the pIC50 in assay [1] (6 hours) and in assay [4] was less than 4.82 in each case. Besides, the pEC50 is 4.82 to 5.70 in assay [2] (72 hours) and less than 4.82 in assay [3] (72 hours).

On to `CC(=O)N1CCC2(CC1)CCN(c1cc3c(C(C)Nc4ccccc4C(=O)O)cc(C)cc3c(=O)n1C)CC2` (single isomer, unassigned) [Example 136], for which the pIC50 in assay [1] (6 hours) is 4.82 to 5.70; in assay [4] it was 6.30 to 9.00. Also, the pEC50 was 6.30 to 9.00 in assay [2] (72 hours) and 4.82 to 5.70 in assay [3] (72 hours).

Regarding `Cc1cc(C(C)Nc2ccccc2C(=O)O)c2cc(N3CCN4CCC[C@@H]4C3)n(C)c(=O)c2c1` (single isomer, unassigned) [Example 137], the pIC50 in assay [1] (Homo sapiens, SK-BR-3, 6 h) was less than 4.82; in assay [4] (Homo sapiens, T47D, 6 h) it was 6.30 to 9.00. In addition, the pEC50 is 5.70 to 6.30 in assay [2] (Homo sapiens, T47D, 72 h) and less than 4.82 in assay [3] (Homo sapiens, SK-BR-3, 72 h).

With `Cc1cc(C(C)Nc2ccccc2C(=O)O)c2cc(N3CCN4CCC[C@H]4C3)n(C)c(=O)c2c1` (single isomer, unassigned) [Example 138], the pIC50 in assay [1] (Homo sapiens, SK-BR-3, 6 h) was less than 4.82; in assay [4], less than 4.82. Also, the pEC50 in assay [2] (72 hours) was less than 4.82; in assay [3] (Homo sapiens, SK-BR-3, 72 h) it was less than 4.82.

Turning to `Cc1cc(C(C)Nc2ccccc2C(=O)O)c2cc(N3CCN4CCC[C@H]4C3)n(C)c(=O)c2c1` (single isomer, unassigned) [Example 139], the pIC50 in assay [1] (6 hours) is less than 4.82; in assay [4], 5.70 to 6.30. For the same compound, the pEC50 in assay [2] (72 hours) was 5.70 to 6.30; in assay [3] (72 hours) it was less than 4.82.

Take `Cc1cc(C(C)Nc2ccccc2C(=O)O)c2cc(N3CCN4C(=O)OC[C@H]4C3)n(C)c(=O)c2c1` (single isomer, unassigned) [Example 141]: the pIC50 in assay [1] (Homo sapiens, SK-BR-3, 6 h) is less than 4.82; in assay [4] it was less than 4.82. Moreover, the pEC50 in assay [2] (72 hours) is less than 4.82; in assay [3] (Homo sapiens, SK-BR-3, 72 h) it was less than 4.82.

Take `Cc1cc(C(C)Nc2ccccc2C(=O)O)c2cc(N3CCN4C(=O)OC[C@H]4C3)n(C)c(=O)c2c1` (single isomer, unassigned) [Example 142]: the results for the pIC50 in assay [1] (6 hours) and in assay [4] were less than 4.82 and 4.82 to 5.70, respectively. Besides, the pEC50 was 5.70 to 6.30 in assay [2] (72 hours) and less than 4.82 in assay [3] (72 hours).

Consider `Cc1cc(C(C)Nc2ccccc2C(=O)O)c2cc(C#Cc3cccc(Cl)c3)n(C)c(=O)c2c1` (single isomer, unassigned) [Example 143], for which the pIC50 in assay [1] (Homo sapiens, SK-BR-3, 6 h) was less than 4.82; in assay [4], less than 4.82. Moreover, the pEC50 was less than 4.82 in assay [2] (Homo sapiens, T47D, 72 h) and less than 4.82 in assay [3] (Homo sapiens, SK-BR-3, 72 h).

In the case of `Cc1cc(C(C)Nc2ccccc2C(=O)O)c2cc(C#Cc3cccc(Cl)c3)n(C)c(=O)c2c1` (single isomer, unassigned) [Example 144], the pIC50 in assay [1] (6 hours) is less than 4.82; in assay [4], 5.70 to 6.30. In addition, the pEC50 in assay [2] (72 hours) and in assay [3] (72 hours) was less than 4.82 each time.

Regarding `Cc1cc(C(C)Nc2ccccc2C(=O)O)c2cc(N3CCN(c4ccc(C)nc4)CC3)n(C)c(=O)c2c1` (single isomer, unassigned) [Example 145], the pIC50 was 4.82 to 5.70 in assay [1] (Homo sapiens, SK-BR-3, 6 h) and 6.30 to 9.00 in assay [4] (Homo sapiens, T47D, 6 h). The pEC50 is 6.30 to 9.00 in assay [2] (Homo sapiens, T47D, 72 h) and 4.82 to 5.70 in assay [3] (Homo sapiens, SK-BR-3, 72 h).

Consider `Cc1cc(C(C)Nc2ccccc2C(=O)O)c2cc(N3CCN(c4ccc(C)nc4)CC3)n(C)c(=O)c2c1` (single isomer, unassigned) [Example 146], for which the pIC50 in assay [1] (6 hours) and in assay [4] was less than 4.82 throughout. For the same compound, the pEC50 in assay [2] (72 hours) was 4.82 to 5.70; in assay [3] (72 hours), less than 4.82.
